These results are taken from ChEMBL document CHEMBL1144199, “Design, synthesis, and biological evaluation of new mitonafide derivatives as potential antitumor drugs” (Bioorg Med Chem, 2008).

In one test the test system is DNA. Description: Displacement of ethidium bromide from calf thymus DNA assessed as ratio of concentration of ethidium in ethidium DNA complex to drug concentration by fluorometric assay. Format: nucleic-acid assay. The conditions noted are these: Bos taurus.
The test system of another test is HT-29. Description: Cytotoxicity against human HT-29 cells after 144 hrs. It is filed as functional, cell-based. The conditions noted are these: HT-29, 144 h.

The term IC50 denotes the midpoint of a concentration-inhibition curve. A lower IC50 goes with greater potency in that assay. `CN(C)CCCNc1ccc2c3c(cccc13)C(=O)N(CCN(C)C)C2=O`: the Kapp in the test with DNA was 1.9 ×10⁷ /M. In the test with HT-29, this compound registered an IC50 of 930 nM. Regarding `CCN(CC)CCNc1ccc2c3c(cccc13)C(=O)N(CCN(C)C)C2=O`, the Kapp with DNA was 2.3 ×10⁷ /M. Further, in the test on HT-29, 2100 nM corresponded to half-maximal inhibition (IC50). As for `CN(C)CCNc1ccc2c3c(cccc13)C(=O)N(CCN(C)C)C2=O`, in the test on DNA, the Kapp is 2.3 ×10⁷ /M. In the test on HT-29, this compound registered an IC50 of 160 nM. Take `CN(C)CCCNc1ccc2c3c(cccc13)C(=O)N(CCCN(C)CCCN1C(=O)c3cccc4c(NCCCN(C)C)ccc(c34)C1=O)C2=O`: the Kapp with DNA was determined as 1.1 ×10⁸ /M. In addition, the IC50 in the test with HT-29 was 100 nM. Turning to `CN(C)CCCNc1c(N)cc2c3c(cccc13)C(=O)N(CCCN(C)C)C2=O`, the Kapp with DNA was 3.9 ×10⁷ /M. 16800 nM corresponded to half-maximal inhibition in the test on HT-29 (IC50). Regarding `CN(C)CCNC(=O)c1ccc(NCCN(C)C)c2c(=O)c3ccccc3[nH]c12`, the IC50 in the test on HT-29 came out at 44 nM.

On to `NCCNc1c([N+](=O)[O-])cc2c3c(cccc13)C(=O)N(CCN)C2=O`, for which, in the test on DNA, the Kapp worked out at 5.3 ×10⁷ /M. This compound also gave an IC50 in the test on HT-29 of 860 nM. Turning to `CN(C)CCNc1c([N+](=O)[O-])cc2c3c(cccc13)C(=O)N(CCN(C)C)C2=O`, the Kapp in the test with DNA stood at 7.7 ×10⁷ /M. Half-maximal inhibition in the test on HT-29 (IC50) required 120 nM.

For `CN(C)CCNC(=O)c1cccc2c(=O)c3ccccc3[nH]c12`, the IC50 in the test with HT-29 turned out to be 1700 nM. Consider `CN(C)CCCN1C(=O)c2cccc3c(NCCN(C)C)ccc(c23)C1=O`, for which, in the test with DNA, the Kapp worked out at 1.5 ×10⁷ /M. Besides, the IC50 in the test with HT-29 was 1700 nM.

Regarding `CCN(CC)CCCNc1ccc2c3c(cccc13)C(=O)N(CCN(C)C)C2=O`, the Kapp in the test with DNA came to 1.9 ×10⁷ /M. The IC50 in the test on HT-29 was found to be 890 nM.

With `CN(C)CCN1C(=O)c2cccc3cc([N+](=O)[O-])cc(c23)C1=O` [MITONAFIDE], the Kapp with DNA was determined as 3.4 ×10⁶ /M. The compound also yielded an IC50 in the test on HT-29 of 220 nM.

As to `CN(C)CCNc1c(N)cc2c3c(cccc13)C(=O)N(CCN(C)C)C2=O`, the Kapp in the test with DNA is 4.5 ×10⁷ /M. Moreover, the IC50 with HT-29 amounted to 810 nM. Turning to `CN(C)CCCNc1c([N+](=O)[O-])cc2c3c(cccc13)C(=O)N(CCCN(C)C)C2=O`, in the test on DNA, the Kapp amounted to 7 ×10⁷ /M. For the same compound, the concentration for half-maximal inhibition (IC50) with HT-29 was 140 nM.

Consider `CN(C)CCCNc1ccc2c3c(cccc13)C(=O)N(CCCN(C)C)C2=O`, for which, in the test with DNA, the Kapp was 1.3 ×10⁷ /M. The IC50 with HT-29 was found to be 1400 nM. For the compound `CN(C)CCNc1ccc2c3c(cccc13)C(=O)N(CCCN(C)CCCN1C(=O)c3cccc4c(NCCN(C)C)ccc(c34)C1=O)C2=O`, the Kapp in the test with DNA came out at 2.3 ×10⁸ /M. The compound also returned an IC50 in the test with HT-29 of 60 nM. For the compound `CN(C)CCN1C(=O)c2cccc3c(NCCNCCO)ccc(c23)C1=O`, the Kapp with DNA was 2.4 ×10⁷ /M. The compound further registered an IC50 in the test with HT-29 of 770 nM.
